The results in this text go back to patent publication US5310757A, “3,3,5-trimethylcyclohexyl 2-methylpropionate derivatives, their method of preparation and therapeutic compositions in which they are present” (Panmedica, priority 1989, dated 1994).

The target in assay [1] is T1, 3-hydroxy-3-methylglutaryl-CoA reductase (Rattus norvegicus, UniProt P51639).
T1 construct: from tissue
T1 sequence (P51639 1-887): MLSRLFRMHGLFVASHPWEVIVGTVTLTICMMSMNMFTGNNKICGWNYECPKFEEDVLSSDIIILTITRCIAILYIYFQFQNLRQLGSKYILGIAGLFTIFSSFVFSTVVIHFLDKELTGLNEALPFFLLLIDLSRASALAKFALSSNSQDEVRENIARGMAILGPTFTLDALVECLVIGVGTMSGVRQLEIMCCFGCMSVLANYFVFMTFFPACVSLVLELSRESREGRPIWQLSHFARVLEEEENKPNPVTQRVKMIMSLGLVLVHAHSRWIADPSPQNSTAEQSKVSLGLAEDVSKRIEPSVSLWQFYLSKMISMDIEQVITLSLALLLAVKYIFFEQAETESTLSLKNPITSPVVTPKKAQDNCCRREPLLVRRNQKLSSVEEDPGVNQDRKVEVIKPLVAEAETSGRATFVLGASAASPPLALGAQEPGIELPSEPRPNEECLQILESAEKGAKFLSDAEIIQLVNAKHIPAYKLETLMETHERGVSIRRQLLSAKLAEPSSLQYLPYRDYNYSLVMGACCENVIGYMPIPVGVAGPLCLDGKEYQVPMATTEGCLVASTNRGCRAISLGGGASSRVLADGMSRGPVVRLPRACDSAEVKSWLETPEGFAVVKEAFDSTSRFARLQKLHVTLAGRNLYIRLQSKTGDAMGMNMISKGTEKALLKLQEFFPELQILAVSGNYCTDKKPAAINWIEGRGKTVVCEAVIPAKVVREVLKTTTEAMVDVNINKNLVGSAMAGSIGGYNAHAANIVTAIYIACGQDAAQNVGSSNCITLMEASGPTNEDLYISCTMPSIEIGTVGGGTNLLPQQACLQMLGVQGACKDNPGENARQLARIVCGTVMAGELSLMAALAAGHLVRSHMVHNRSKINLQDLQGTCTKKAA
Briefly: inhibition of 3-hydroxy-3-methylglutaryl-CoA reductase activity (method of Kuroda et al.). In kind it is biochemical. The conditions noted are these: concentration for 50% inhibition of 3-hydroxy-3-methylglutaryl-CoA reductase activity. As for the experimental part: The biosynthesis of cholesterol in an isolated enzymatic system or in a cell culture from organs removed from experimental animals is inhibited by limiting the activity of the enzyme 3-hydroxy-3-methylglutaryl-CoA reductase.
The inhibitory activity of the products according to the present invention was determined by the method of Kuroda et al. (Biochemica et Biophysica Acta, vol. 486, pp. 70-81 (1977)), which is a modification of the method of Shapiro et al. (Analytical Biochemistry, vol. 31, pp. 383-390 (1969)). The results are summarized in Table II, where IC50 is the concentration of product in the experimental medium which is necessary to achieve a 50% inhibition of the 3-hydroxy-3-methylglutaryl-CoA reductase activity, expressed in nanomol.

The test system of a further assay is HMG-CoA red. The assay can be described thus: HMG-CoA red. activity "ex vivo" in liver microsomes after chronic intraperitoneal administration to rats. Conditions: 50 mg/kg for 6 days; for Mevalonate formed: Control 17; for % inhibition: inhibition of HMG-CoA red. activity, Control 0. The arrangement: Mevalonate formed: unit not given here. As for the experimental part: The inhibitory activity of the products according to the present invention was determined by the method of Kuroda et al. (Biochemica et Biophysica Acta, vol. 486, pp. 70-81 (1977)), which is a modification of the method of Shapiro et al. (Analytical Biochemistry, vol. 31, pp. 383-390 (1969)). […] The doses administered were 50 mg/kg for 6 days; six rats were used in each series; they are sacrificed without anaesthesia and the liver microsomes are isolated for the assay, which is performed according to the above-mentioned protocol.
On the technique in general: Liver microsomes are vesicles of endoplasmic reticulum, rich in cytochrome P450 enzymes.

Assay [2] concerns hyperlipidaemia caused by TRITON 1339. The assay can be described thus: test for the hyperlipidaemia caused by TRITON 1339. In kind it is in vivo. The conditions noted are these: rats, Triton test after oral administration for six days, 0.5 millimol per kilogram; for HDL cholesterol: Control 0.7 ± 0.1, Triton 0.8 ± 0.1; for Triglycerides: Control 1 ± 0.3, Triton 10 ± 7; for Total cholesterol: Control 2 ± 0.15, Triton 9 ± 3; for Total lipids: Control 3.5 ± 0.4, Triton 20 ± 10. As for the experimental part:
The Table below summarizes the results of the pharmacological studies carried out especially by means of the test for the hyperlipidaemia caused by TRITON 1339. The experimental protocol was that published by J. C. […] et al. (Gaz. Med. France, 3rd inter. coll. 1982, Dijon, 18-22). The tests are performed on groups of 7 rats weighing from 280 to 290 g. The Triton test is carried out after oral administration for six days at a rate of 0.5 millimol per kilogram of body weight. The following lipid parameters are measured: total cholesterol, triglycerides, total lipids and HDL cholesterol.

pIC50: −log10 of the molar value.

The term pIC50 denotes −log10 of the IC50, conventionally taken in molar units. The term % inhibition denotes the change of the read-out against control, counted positive when it falls. In assay [1], `C[C@@H]1C[C@H](OC(=O)C(C)(C)Oc2ccc(C(=O)c3ccc(Cl)cc3)cc2)CC(C)(C)C1` (relative stereo) [Example 2, (CIS) 3,3,5-TRIMETHYLCYCLOHEXYL 2-(4-(4-CHLOROBENZOYL)PHENOXY)-2-METHYLPROPIONATE] had a pIC50 of 7.43. Also, in the assay on HMG-CoA red., the Mevalonate formed is 7.3 and the “% inhibition” value was determined as 57%. In assay [2], this molecule gave an HDL cholesterol of 2.1 ± 0.5 mmol/L, a Triglycerides of 0.5 ± 0.15 mmol/L, a Total cholesterol of 3.0 ± 0.4 mmol/L and a Total lipids of 3.6 ± 0.2 g/L.

Molecule `C[C@H]1C[C@H](OC(=O)C(C)(C)Oc2ccc(CCNC(=O)c3ccc(Cl)cc3)cc2)CC(C)(C)C1` (relative stereo) [Example 3, (TRANS) 3,3,5-TRIMETHYLCYCLOHEXYL 2-(4-(2-(4-CHLOROBENZAMIDO)ETHYL)PHENOXY)-2-METHYLPROPIONATE] gave a negative logarithm of the IC50 (pIC50) in assay [1] of 7.41. In assay [2], this molecule had an HDL cholesterol of 1.6 ± 0.4 mmol/L, a Triglycerides of 1.2 ± 0.4 mmol/L, a Total cholesterol of 1.2 ± 0.7 mmol/L and a Total lipids of 3.8 ± 0.5 g/L.

With `C[C@@H]1C[C@H](OC(=O)C(C)(C)Oc2ccc(CCNC(=O)c3ccc(Cl)cc3)cc2)CC(C)(C)C1` (relative stereo) [Example 4, (CIS) 3,3,5-TRIMETHYLCYCLOHEXYL 2-(4-(2-(4-CHLOROBENZAMIDO)ETHYL)PHENOXY)-2-METHYLPROPIONATE], the pIC50 in assay [1] was 7.59. Further, in assay [2], the HDL cholesterol was 2.2 ± 0.3 mmol/L, the Triglycerides amounted to 2.5 ± 0.5 mmol/L, the Total cholesterol turned out to be 2.6 ± 0.3 mmol/L and the Total lipids came to 4.8 ± 0.7 g/L.

For the molecule `Cc1ccc(C)c(OCCCC(C)(C)C(=O)O[C@H]2C[C@@H](C)CC(C)(C)C2)c1` (relative stereo) [Example 5, (CIS) 3,3,5-TRIMETHYLCYCLOHEXYL 2-(3-(2,5-DIMETHYLPHENOXY)PROPYL)-2-METHYLPROPIONATE], in assay [1], the pIC50 was 7.52. Moreover, in the assay on HMG-CoA red., the Mevalonate formed is 6.71 and the “% inhibition” value was found to be 60%. In addition, in assay [2], the HDL cholesterol turned out to be 1.0 ± 0.3 mmol/L, the Triglycerides was 2.0 ± 0.3 mmol/L, the Total cholesterol stood at 5.0 ± 0.8 mmol/L and the Total lipids turned out to be 3.0 ± 0.4 g/L.

Regarding `C[C@H]1C[C@H](OC(=O)C(C)(C)Oc2ccc(-c3ccccc3)cc2)CC(C)(C)C1` (relative stereo) [Example 7, (TRANS) 3,3,5-TRIMETHYLCYCLOHEXYL 2-(4-PHENYLPHENOXY)-2-METHYLPROPIONATE], the pIC50 in assay [1] was 7.37. Also, in assay [2], the HDL cholesterol is 1.5 ± 0.4 mmol/L, the Triglycerides amounted to 1.1 ± 0.5 mmol/L, the Total cholesterol amounted to 2.2 ± 0.4 mmol/L and the Total lipids stood at 3.0 ± 0.5 g/L.
